Test results from patent US6579983B1, “5-cyano-2-aminopyrimidine derivatives” (Celltech R&D Limited, priority 1999, dated 2003).

Row | Compound | melting point
1 | CC(C)(N)c1ccc(-c2nc(Nc3ccc4[nH]ncc4c3)ncc2C#N)cc1 [Example 8, 4-[4-(1-Amino-1-methylethyl)phenyl]-5-cyano-N-(indazol-5-yl)pyrimidine-2-amine] | 267 to 271 °C (dec.)
2 | COc1cc(Nc2ncc(C#N)c(-c3ccc(C(C)(C)N)cc3)n2)cc(OC)c1OC [Example 9, 4-[4-(1-Amino-1-methylethyl)phenyl]-5-cyano-N-(3,4,5-trimethoxyphenyl)pyrimidine-2-amine] | 167 to 168 °C
